Read-outs that look alike come from different tables or passages of the source.
What was measured:
Test in all cases: cell-based
hNav1.4 [1] = target: T1, hNav1.4 (Homo sapiens, UniProt P35499); type: cell-based; conditions: Table 12; ratio of PX tonic IC50 values
hNav1.5 [2] = target: T2, hNav1.5 (Homo sapiens, UniProt Q14524); conditions: Table 12; ratio of PX tonic IC50 values
hNav1.7 [3] = target: T3, hNav1.7 (Homo sapiens, UniProt Q15858); type: cell-based; conditions: for IC50: Table 15, read-out: PX hNav1.7 Tonic IC50; for Nav1.4/Nav1.7 / Nav1.5/Nav1.7: ratio of PX tonic IC50 values, Table 11
hNav1.7 [4] = target: T3, hNav1.7; conditions: read-out: IC50 (μM) Nav1.7
hNav1.6 = hNav1.6 (Homo sapiens, UniProt Q9UQD0); type: cell-based; conditions: Table 15; for Nav1.6/Nav1.7: ratio of PX tonic IC50 values; for IC50: read-out: PX hNav1.6 Tonic IC50
Sequence of hNav1.6 (Q9UQD0 whole entry): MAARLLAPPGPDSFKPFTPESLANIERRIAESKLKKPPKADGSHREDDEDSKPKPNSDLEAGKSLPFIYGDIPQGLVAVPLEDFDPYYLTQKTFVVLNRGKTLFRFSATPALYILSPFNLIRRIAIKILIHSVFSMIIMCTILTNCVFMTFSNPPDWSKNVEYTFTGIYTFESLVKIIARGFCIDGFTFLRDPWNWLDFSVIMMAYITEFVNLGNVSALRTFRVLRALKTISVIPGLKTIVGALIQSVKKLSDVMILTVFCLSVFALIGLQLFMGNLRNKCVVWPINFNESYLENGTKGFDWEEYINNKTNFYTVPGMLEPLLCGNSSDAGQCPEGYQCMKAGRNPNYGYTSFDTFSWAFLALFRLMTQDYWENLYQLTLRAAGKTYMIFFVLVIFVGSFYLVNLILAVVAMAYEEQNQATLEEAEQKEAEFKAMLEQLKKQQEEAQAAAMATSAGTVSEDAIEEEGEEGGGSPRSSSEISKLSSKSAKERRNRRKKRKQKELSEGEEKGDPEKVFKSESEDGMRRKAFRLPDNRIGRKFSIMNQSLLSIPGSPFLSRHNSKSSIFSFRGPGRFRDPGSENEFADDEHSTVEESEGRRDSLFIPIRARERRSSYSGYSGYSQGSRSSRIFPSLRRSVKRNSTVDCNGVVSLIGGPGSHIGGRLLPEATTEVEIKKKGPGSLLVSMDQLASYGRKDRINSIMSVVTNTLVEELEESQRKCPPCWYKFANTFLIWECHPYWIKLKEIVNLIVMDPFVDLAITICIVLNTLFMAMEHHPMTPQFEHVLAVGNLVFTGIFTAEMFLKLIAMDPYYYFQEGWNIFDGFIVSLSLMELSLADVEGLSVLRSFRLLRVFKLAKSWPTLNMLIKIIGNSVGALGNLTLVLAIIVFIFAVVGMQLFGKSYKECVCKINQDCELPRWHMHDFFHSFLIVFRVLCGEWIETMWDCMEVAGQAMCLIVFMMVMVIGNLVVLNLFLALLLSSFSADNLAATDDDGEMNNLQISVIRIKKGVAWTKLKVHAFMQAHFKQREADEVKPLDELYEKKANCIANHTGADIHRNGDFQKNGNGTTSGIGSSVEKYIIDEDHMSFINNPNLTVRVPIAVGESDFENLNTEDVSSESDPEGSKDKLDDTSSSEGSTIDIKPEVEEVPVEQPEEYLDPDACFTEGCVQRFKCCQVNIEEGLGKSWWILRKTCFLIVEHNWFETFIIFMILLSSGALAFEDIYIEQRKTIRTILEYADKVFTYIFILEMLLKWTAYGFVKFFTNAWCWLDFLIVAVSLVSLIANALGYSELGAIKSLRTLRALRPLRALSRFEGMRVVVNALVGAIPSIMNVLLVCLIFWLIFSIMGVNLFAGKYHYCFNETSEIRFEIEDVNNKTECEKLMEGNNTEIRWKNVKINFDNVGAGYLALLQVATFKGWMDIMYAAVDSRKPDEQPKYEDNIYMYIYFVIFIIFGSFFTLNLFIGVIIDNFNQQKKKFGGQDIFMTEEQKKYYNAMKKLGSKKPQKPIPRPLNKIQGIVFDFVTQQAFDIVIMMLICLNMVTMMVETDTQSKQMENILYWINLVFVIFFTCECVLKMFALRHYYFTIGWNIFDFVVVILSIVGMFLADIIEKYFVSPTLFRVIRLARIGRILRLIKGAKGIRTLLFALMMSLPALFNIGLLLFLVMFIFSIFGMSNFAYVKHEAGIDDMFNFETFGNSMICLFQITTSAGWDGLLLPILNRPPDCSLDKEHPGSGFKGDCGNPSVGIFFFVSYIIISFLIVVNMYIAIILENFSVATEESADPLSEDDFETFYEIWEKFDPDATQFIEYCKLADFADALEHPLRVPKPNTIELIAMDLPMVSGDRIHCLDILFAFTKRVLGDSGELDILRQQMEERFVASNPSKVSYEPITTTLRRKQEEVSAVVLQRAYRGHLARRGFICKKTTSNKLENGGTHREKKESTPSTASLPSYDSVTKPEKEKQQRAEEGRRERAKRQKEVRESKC

hNav1.4 [5] = target: T1, hNav1.4; type: cell-based; conditions: Table 6; for IC50: IonWorks Quattro, read-out: IC50 (μM) Nav1.4; for Nav1.4/Nav1.7: ratio of IonWorks Quattro IC50 values
hNav1.3 = hNav1.3 (Homo sapiens, UniProt Q9NY46); conditions: IonWorks Quattro; Table 6; read-out: IC50 (μM) Nav1.3
hNav1.5 [6] = target: T2, hNav1.5; conditions: IonWorks Quattro; Table 6; read-out: IC50 (μM) Nav1.5

T2 sequence (Q14524 whole entry): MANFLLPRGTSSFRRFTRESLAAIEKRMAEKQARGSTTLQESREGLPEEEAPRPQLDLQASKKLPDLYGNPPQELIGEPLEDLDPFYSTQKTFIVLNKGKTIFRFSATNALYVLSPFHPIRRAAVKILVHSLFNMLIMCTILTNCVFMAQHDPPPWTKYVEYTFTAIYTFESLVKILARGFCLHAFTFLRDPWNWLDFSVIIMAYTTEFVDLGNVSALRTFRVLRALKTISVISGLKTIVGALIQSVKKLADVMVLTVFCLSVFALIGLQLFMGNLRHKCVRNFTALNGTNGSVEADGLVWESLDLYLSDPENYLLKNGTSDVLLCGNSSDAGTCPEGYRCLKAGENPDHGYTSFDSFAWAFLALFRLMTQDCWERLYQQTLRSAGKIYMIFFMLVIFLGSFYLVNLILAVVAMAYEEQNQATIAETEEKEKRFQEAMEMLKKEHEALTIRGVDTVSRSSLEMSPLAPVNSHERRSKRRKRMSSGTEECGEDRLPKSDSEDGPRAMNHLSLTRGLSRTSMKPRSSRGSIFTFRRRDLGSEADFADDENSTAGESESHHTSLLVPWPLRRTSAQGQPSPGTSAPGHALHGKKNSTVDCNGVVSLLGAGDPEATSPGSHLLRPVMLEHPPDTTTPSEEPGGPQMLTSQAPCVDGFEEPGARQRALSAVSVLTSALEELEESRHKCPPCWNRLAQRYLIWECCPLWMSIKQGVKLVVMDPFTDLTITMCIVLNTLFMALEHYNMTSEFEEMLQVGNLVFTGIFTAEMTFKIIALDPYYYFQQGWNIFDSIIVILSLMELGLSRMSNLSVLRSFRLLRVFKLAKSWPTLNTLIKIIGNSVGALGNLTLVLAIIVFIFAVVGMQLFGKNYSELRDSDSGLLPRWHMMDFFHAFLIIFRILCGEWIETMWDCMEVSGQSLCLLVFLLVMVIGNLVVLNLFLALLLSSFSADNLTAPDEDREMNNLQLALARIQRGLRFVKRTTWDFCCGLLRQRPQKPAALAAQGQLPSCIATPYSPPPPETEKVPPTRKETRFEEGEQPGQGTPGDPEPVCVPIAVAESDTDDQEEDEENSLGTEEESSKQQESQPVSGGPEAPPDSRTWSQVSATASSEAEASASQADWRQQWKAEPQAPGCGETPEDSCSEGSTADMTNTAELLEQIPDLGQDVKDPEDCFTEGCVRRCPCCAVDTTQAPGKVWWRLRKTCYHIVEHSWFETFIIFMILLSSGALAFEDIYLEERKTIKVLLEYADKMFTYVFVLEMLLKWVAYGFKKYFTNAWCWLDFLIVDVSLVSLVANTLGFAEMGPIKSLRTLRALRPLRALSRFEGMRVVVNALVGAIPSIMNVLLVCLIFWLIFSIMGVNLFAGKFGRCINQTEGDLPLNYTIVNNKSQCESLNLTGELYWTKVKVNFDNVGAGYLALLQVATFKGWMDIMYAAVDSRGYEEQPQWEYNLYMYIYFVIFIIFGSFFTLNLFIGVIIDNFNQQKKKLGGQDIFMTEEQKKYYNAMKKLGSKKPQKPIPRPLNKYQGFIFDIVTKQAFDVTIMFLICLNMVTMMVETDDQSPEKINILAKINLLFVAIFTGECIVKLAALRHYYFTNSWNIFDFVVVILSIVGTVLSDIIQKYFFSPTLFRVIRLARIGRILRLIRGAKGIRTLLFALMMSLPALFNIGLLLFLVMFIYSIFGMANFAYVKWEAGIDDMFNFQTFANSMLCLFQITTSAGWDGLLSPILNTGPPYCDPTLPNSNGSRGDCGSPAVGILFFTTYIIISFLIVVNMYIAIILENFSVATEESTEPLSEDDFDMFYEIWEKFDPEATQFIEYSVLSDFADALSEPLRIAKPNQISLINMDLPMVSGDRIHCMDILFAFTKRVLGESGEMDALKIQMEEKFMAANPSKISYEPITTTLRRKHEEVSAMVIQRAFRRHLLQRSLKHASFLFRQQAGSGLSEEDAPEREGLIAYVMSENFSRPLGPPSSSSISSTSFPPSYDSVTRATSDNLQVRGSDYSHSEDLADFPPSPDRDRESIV

C#CC[C@H](N)C(=O)NCCOCCOCCOCCOCCC(=O)NCCCC[C@@H]1NC(=O)[C@H](CCCNC(=N)N)NC(=O)[C@H](CCCCN)NC(=O)[C@H](CO)NC(=O)[C@H](CC(=O)O)NC(=O)[C@@H]2CSSC[C@@H]3NC(=O)[C@H](CCC(=O)O)NC(=O)[C@H](CC(C)C)NC(=O)CNC(=O)[C@H](CCC(=O)O)NC(=O)[C@H](CSSC[C@H](NC(=O)[C@@H](N)Cc4ccc(O)cc4)C(=O)N[C@@H](CCC(N)=O)C(=O)N[C@@H](CCCCN)C(=O)N[C@@H](Cc4c[nH]c5ccccc45)C(=O)N[C@@H](CCCC)C(=O)N[C@@H](Cc4c[nH]c5ccccc45)C(=O)N[C@@H]([C@@H](C)O)C(=O)N2)NC(=O)[C@H](CSSC[C@@H](C(=O)N[C@@H](CCCNC(=N)N)C(=O)N[C@@H](CCCCN)C(=O)N[C@H](C(=O)N[C@@H](Cc2c[nH]c4ccccc24)C(N)=O)[C@@H](C)CC)NC(=O)[C@H](Cc2c[nH]c4ccccc24)NC(=O)[C@H](CC(C)C)NC(=O)[C@H](CCCCN)NC3=O)NC1=O [compound 291]
Nav1.4/Nav1.7 (hNav1.4 [1]): 38 | Nav1.5/Nav1.7 (hNav1.5 [2]): 100

CC[C@H](C)[C@H](NC(=O)[C@H](CCC(=O)O)NC(=O)[C@H](CCCCN)NC(=O)[C@H](CCCNC(=N)N)NC(=O)[C@@H]1CSSC[C@@H]2NC(=O)[C@H](C)NC(=O)[C@H](CCCNC(=N)N)NC(=O)[C@H](CCCCN)NC(=O)[C@H](CO)NC(=O)[C@H](CC(=O)O)NC(=O)[C@@H]3CSSC[C@H](NC(=O)[C@H](CCCNC(=N)N)NC(=O)[C@H](CC(C)C)NC(=O)CNC(=O)[C@H](CCC(=O)O)NC(=O)[C@H](CSSC[C@H](NC(=O)[C@@H](N)Cc4ccc(O)cc4)C(=O)N[C@@H](CCC(N)=O)C(=O)N[C@@H](CCCCN)C(=O)N[C@@H](Cc4c[nH]c5ccccc45)C(=O)N[C@@H](CCSC)C(=O)N[C@@H](Cc4c[nH]c5ccccc45)C(=O)N[C@@H]([C@@H](C)O)C(=O)N3)NC2=O)C(=O)N[C@@H](CCCCN)C(=O)N[C@@H](CC(C)C)C(=O)N[C@@H](Cc2c[nH]c3ccccc23)C(=O)N1)C(N)=O [compound 69]
IC50 (hNav1.7 [3]): 0.568 nM | Nav1.4/Nav1.7 (hNav1.7 [3]): 300 | Nav1.5/Nav1.7 (hNav1.7 [3]): 8800 | IC50 (hNav1.7 [4]): 0.028 µM | Nav1.6/Nav1.7 (hNav1.6): 437 | IC50 (hNav1.6): 248 nM | IC50 (hNav1.4 [5]): 0.83 µM | Nav1.4/Nav1.7 (hNav1.4 [5]): 30 | IC50 (hNav1.3): 0.33 µM | IC50 (hNav1.5 [6]): > 5 µM

CC[C@H](C)[C@H](NC(=O)[C@@H](NC(=O)[C@H](CCCCN)NC(=O)[C@H](CCCNC(=N)N)NC(=O)[C@@H]1CSSC[C@@H]2NC(=O)[C@H](CCC(=O)O)NC(=O)[C@H](CCCNC(=N)N)NC(=O)[C@H](CCCCN)NC(=O)[C@H](CO)NC(=O)[C@H](CC(=O)O)NC(=O)[C@@H]3CSSC[C@H](NC(=O)[C@H](CCCNC(=N)N)NC(=O)[C@H](CC(C)C)NC(=O)CNC(=O)[C@H](CCC(=O)O)NC(=O)[C@H](CSSC[C@H](NC(=O)[C@@H](N)Cc4ccc(O)cc4)C(=O)N[C@@H](CCC(N)=O)C(=O)N[C@@H](CCCCN)C(=O)N[C@@H](Cc4c[nH]c5ccccc45)C(=O)N[C@@H](CCSC)C(=O)N[C@@H](Cc4c[nH]c5ccccc45)C(=O)N[C@@H]([C@@H](C)O)C(=O)N3)NC2=O)C(=O)N[C@@H](CCCCN)C(=O)N[C@@H](CC(C)C)C(=O)N[C@@H](Cc2c[nH]c3ccccc23)C(=O)N1)[C@@H](C)CC)C(N)=O [compound 60]
IC50 (hNav1.7 [4]): 0.02 µM | IC50 (hNav1.6): 146 nM | IC50 (hNav1.4 [5]): 0.23 µM | Nav1.4/Nav1.7 (hNav1.4 [5]): 12 | IC50 (hNav1.3): 0.11 µM | IC50 (hNav1.5 [6]): > 5 µM

C#CC[C@H](N)C(=O)N[C@@H](Cc1ccc(O)cc1)C(=O)N[C@H]1CSSC[C@@H]2NC(=O)[C@@H]3CSSC[C@@H](C(=O)N[C@@H](CCCNC(=N)N)C(=O)N[C@@H](CCCCN)C(=O)N[C@@H](Cc4ccc(O)cc4)C(=O)N[C@H](C(N)=O)[C@@H](C)CC)NC(=O)[C@H](Cc4c[nH]c5ccccc45)NC(=O)[C@H](CC(C)C)NC(=O)[C@H](CCCCN)NC(=O)[C@H](CSSC[C@H](NC(=O)[C@H]([C@@H](C)O)NC(=O)[C@H](Cc4c[nH]c5ccccc45)NC(=O)[C@H](CCCC)NC(=O)[C@H](Cc4c[nH]c5ccccc45)NC(=O)[C@H](CCCCN)NC(=O)[C@H](CCC(N)=O)NC1=O)C(=O)N[C@@H](CC(=O)O)C(=O)N[C@@H](CO)C(=O)N[C@@H](CCCCN)C(=O)N[C@@H](CCCNC(=N)N)C(=O)N[C@@H](C)C(=O)N3)NC(=O)[C@H](CCC(=O)O)NC(=O)[C@H](CC(C)C)NC(=O)CNC(=O)[C@H](CCC(=O)O)NC2=O [compound 313]
Nav1.4/Nav1.7 (hNav1.4 [1]): 2261 | Nav1.5/Nav1.7 (hNav1.5 [2]): 10226

CC[C@H](C)[C@H](NC(=O)[C@@H](NC(=O)[C@H](CCCCN)NC(=O)[C@H](CCCNC(=N)N)NC(=O)[C@@H]1CSSC[C@@H]2NC(=O)[C@H](C)NC(=O)[C@H](CCCNC(=N)N)NC(=O)[C@H](CCCCN)NC(=O)[C@H](CCC(=O)O)NC(=O)[C@H](CC(=O)O)NC(=O)[C@@H]3CSSC[C@H](NC(=O)[C@H](CCCNC(=N)N)NC(=O)[C@H](CC(C)C)NC(=O)CNC(=O)[C@H](CCC(=O)O)NC(=O)[C@H](CSSC[C@H](NC(=O)[C@@H](N)Cc4ccc(O)cc4)C(=O)N[C@@H](CCC(N)=O)C(=O)N[C@@H](CCCCN)C(=O)N[C@@H](Cc4c[nH]c5ccccc45)C(=O)N[C@@H](CCSC)C(=O)N[C@@H](Cc4c[nH]c5ccccc45)C(=O)N[C@@H]([C@@H](C)O)C(=O)N3)NC2=O)C(=O)N[C@@H](CCCCN)C(=O)N[C@@H](CC(C)C)C(=O)N[C@@H](Cc2c[nH]c3ccccc23)C(=O)N1)[C@@H](C)CC)C(N)=O [compound 57]
IC50 (hNav1.7 [4]): 0.039 µM | IC50 (hNav1.6): 200 nM | IC50 (hNav1.4 [5]): 0.38 µM | Nav1.4/Nav1.7 (hNav1.4 [5]): 10 | IC50 (hNav1.3): 0.19 µM | IC50 (hNav1.5 [6]): > 5 µM

CC[C@H](C)[C@H](NC(=O)[C@@H](NC(=O)[C@H](CCCCN)NC(=O)[C@H](CCCNC(=N)N)NC(=O)[C@@H]1CSSC[C@@H]2NC(=O)[C@H](C)NC(=O)[C@H](CCCNC(=N)N)NC(=O)[C@H](CCCCN)NC(=O)[C@H](CO)NC(=O)[C@H](CC(=O)O)NC(=O)[C@@H]3CSSC[C@H](NC(=O)[C@H](CCCNC(=N)N)NC(=O)[C@H](CC(C)C)NC(=O)CNC(=O)[C@H](CCC(=O)O)NC(=O)[C@H](CSSC[C@H](NC(=O)[C@@H](N)Cc4ccc(O)cc4)C(=O)N[C@@H](CCC(N)=O)C(=O)N[C@@H](CCCCN)C(=O)N[C@@H](Cc4c[nH]c5ccccc45)C(=O)N[C@@H](CCSC)C(=O)N[C@@H](CCC(=O)O)C(=O)N[C@@H]([C@@H](C)O)C(=O)N3)NC2=O)C(=O)N[C@@H](CCCCN)C(=O)N[C@@H](CC(C)C)C(=O)N[C@@H](Cc2c[nH]c3ccccc23)C(=O)N1)[C@@H](C)CC)C(N)=O [compound 54]
IC50 (hNav1.7 [4]): 0.56 µM | IC50 (hNav1.6): > 10000 nM | IC50 (hNav1.4 [5]): 2.6 µM | Nav1.4/Nav1.7 (hNav1.4 [5]): 5 | IC50 (hNav1.3): 2.8 µM | IC50 (hNav1.5 [6]): > 5 µM

CC[C@H](C)[C@H](NC(=O)[C@H](CCCCN)NC(=O)[C@H](CCCNC(=N)N)NC(=O)[C@@H]1CSSC[C@@H]2NC(=O)[C@H](C)NC(=O)[C@H](CCCNC(=N)N)NC(=O)[C@H](CCCCN)NC(=O)[C@H](CO)NC(=O)[C@H](CC(=O)O)NC(=O)[C@@H]3CSSC[C@H](NC(=O)[C@H](CCCNC(=N)N)NC(=O)[C@H](CC(C)C)NC(=O)CNC(=O)[C@H](CCC(=O)O)NC(=O)[C@H](CSSC[C@H](NC(=O)[C@@H](N)Cc4ccc(O)cc4)C(=O)N[C@@H](CCC(N)=O)C(=O)N[C@@H](CCCCN)C(=O)N[C@@H](Cc4c[nH]c5ccccc45)C(=O)N[C@@H](CCSC)C(=O)N[C@@H](Cc4c[nH]c5ccccc45)C(=O)N[C@@H]([C@@H](C)O)C(=O)N3)NC2=O)C(=O)N[C@@H](CCCCN)C(=O)N[C@@H](CC(C)C)C(=O)N[C@@H](Cc2c[nH]c3ccccc23)C(=O)N1)C(=O)N[C@@H](CCC(=O)O)C(N)=O [compound 70]
IC50 (hNav1.7 [3]): 261 nM | Nav1.4/Nav1.7 (hNav1.7 [3]): 43 | Nav1.5/Nav1.7 (hNav1.7 [3]): >38 | IC50 (hNav1.7 [4]): 0.28 µM | Nav1.6/Nav1.7 (hNav1.6): >38 | IC50 (hNav1.6): > 10000 nM | IC50 (hNav1.4 [5]): > 5 µM | Nav1.4/Nav1.7 (hNav1.4 [5]): 18 | IC50 (hNav1.3): 5 µM | IC50 (hNav1.5 [6]): > 5 µM

CC[C@H](C)[C@H](NC(=O)[C@@H](NC(=O)[C@H](CCCCN)NC(=O)[C@H](CCCNC(=N)N)NC(=O)[C@@H]1CSSC[C@@H]2NC(=O)[C@H](C)NC(=O)[C@H](CCCNC(=N)N)NC(=O)[C@H](CCCCN)NC(=O)[C@H](CO)NC(=O)[C@H](CC(=O)O)NC(=O)[C@@H]3CSSC[C@H](NC(=O)[C@H](CCCNC(=N)N)NC(=O)[C@H](CC(C)C)NC(=O)CNC(=O)[C@H](CCC(=O)O)NC(=O)[C@H](CSSC[C@H](NC(=O)[C@@H](N)Cc4ccc(O)cc4)C(=O)N[C@@H](CCC(N)=O)C(=O)N[C@@H](CCCCN)C(=O)N[C@@H](Cc4c[nH]c5ccccc45)C(=O)N[C@@H](CCSC)C(=O)N[C@@H](Cc4c[nH]c5ccccc45)C(=O)N[C@@H]([C@@H](C)O)C(=O)N3)NC2=O)C(=O)N[C@@H](CCCCN)C(=O)N[C@@H](CCC(=O)O)C(=O)N[C@@H](Cc2c[nH]c3ccccc23)C(=O)N1)[C@@H](C)CC)C(N)=O [compound 65]
IC50 (hNav1.7 [4]): 4 µM | IC50 (hNav1.6): 9550 nM | IC50 (hNav1.4 [5]): > 5 µM | Nav1.4/Nav1.7 (hNav1.4 [5]): 1 | IC50 (hNav1.3): 2 µM | IC50 (hNav1.5 [6]): > 5 µM
